Measurements: article PMC7179450, “Primary Human Hepatocytes, But not HepG2 or Balb/c 3T3 Cells, Efficiently Metabolize Salinomycin and Are Resistant to Its Cytotoxicity” (Molecules, 2020)
Read-outs that look alike come from different tables or passages of the source.

Test system: Balb/c 3T3 cells
Assay: MTT assay, cytotoxicity in Balb/c 3T3
Type: cell-based
Settings: Mus musculus, BALB/c3T3, Balb/c 3T3, MTT, mean ± SEM, n = 3, read-out: EC50 (effective concentration)
Experimental: The HepG2 cell line was purchased from the American Type Culture Collection (ATCC® HB-8065™). The cells were cultured in Minimum Essential Medium Eagle (MEME) (Sigma–Aldrich Co. (St. Louis, MO, USA)). Normal murine embryonic fibroblasts, Balb/c 3T3 clone A31 cell line (gift from Department of Swine Diseases of the National Veterinary Research Institute in Pulawy) was cultured in Dulbecco’s Modified Eagle’s Medium (DMEM) (Invitrogen Corporations (Paisley, UK)). The media were supplemented with 10% BCS (Balb/c 3T3), 10% FBS (HepG2), 1% L-glutamine, and 1% antibiotic solution. The cells were maintained in 75 cm^2 cell culture flasks in humidified incubator at 37 °C, in an atmosphere of 5% CO2. […] The initial cell viability was determined with the trypan blue exclusion test. […]
The concentration ranges of the drugs were chosen according to their solubility and their plasma level. […] The cytotoxicity was assessed after 24 and 48 h of exposure of cell lines or after 12 and 24 h exposure of PHH. […]
The metabolic activity of living cells was assessed by measuring the activity of dehydrogenases. […] The plate was shaken for 15 min at room temperature and transferred to a microplate reader to measure the absorbance at 570 nm, using a blank as a reference. Cytotoxicity was expressed as a percentage of the negative control (0.1% or 0.2% DMSO).

**Q.** How did the EC50 (24 h exposure) turn out when CC[C@@H](C(=O)[C@@H](C)[C@@H](O)[C@H](C)[C@@H]1O[C@@H]([C@@H](CC)C(=O)O)CC[C@@H]1C)[C@H]1O[C@]2(C=C[C@@H](O)[C@]3(CC[C@@](C)([C@H]4CC[C@](O)(CC)[C@H](C)O4)O3)O2)[C@H](C)C[C@@H]1C [SAL, salinomycin] was run?
**A.** 10.4 ± 1.4 µg/mL

**Q.** What about the EC50 (48 h exposure) of the same molecule?
**A.** 4.3 ± 0.9 µg/mL
